Source: publication PMC6273400, “Enhancement of Exposure and Reduction of Elimination for Paeoniflorin or Albiflorin via Co-Administration with Total Peony Glucosides and Hypoxic Pharmacokinetics Comparison” (Molecules, 2016)
One block for each compound: values may come before it.

Key:
[1] = Pharmacokinetics in rat plasma after intragastric administration, normoxia (UPLC-MS/MS); assay type: in vivo, Sprague-Dawley rats; conditions: mean ± SD; for clearance / Cmax / Tmax / half-life: n = 6; for Cmax / Tmax / half-life / AUC(0-t) / MRT last: male, Sprague-Dawley, rat, plasma, po; for AUC(0-t): n = 6, read-out: AUC(0→24 h) (converted); for MRT last: n = 6, read-out: MRT(0→24 h) (converted)
Protocol: (§1) Male Sprague-Dawley (SD) rats (250 g ± 20 g) were purchased from the Animal Center of Capital Medical University (ACCMU, Beijing, China). Animals were housed in individual cages with free access to food and water in a room with the illumination (a 12 h light and dark cycle), temperature and relative humidity controlled automatically. Within five days before experiments a jugular vein in each rat under anaesthesia was cannulated by insertion of an indwelling cannula for blood sampling. After fully recovery, the rats were housed with unlimited access to food and water except for fasting 12 h before the experiment with water available. The seven groups of PF/AF and TGP were intragastrically administered to the Sprague-Dawley rats, respectively. All the animal experiments were carried out in accordance with the Guide for the Care and Use of Laboratory Animals as adopted and promulgated by the National Health Ministry of China. The protocols of animal experiments had been approved by the Animal Center of Capital Medical University.
(§2) The UPLC-MS/MS system consisted of a UPLC system (Agilent Technologies, Palo Alto, CA, USA) including a G4220A 1290 binary pump, a G1379A vacuum degasser, a G4226 autosampler, a G1330B 1290 thermostat and triple quadrupole mass spectrometer equipped with an electrospray ionization (ESI) source (Series 6490, Agilent Technologies). The system was controlled with the Agilent Technologies Mass Hunter Workstation B.06.00 software for data acquisition and analysis. The analytes were separated on ZORBAX Eclipse plus C18 column (2.1 mm × 100 mm, 3.5 μm). The mobile phase consisted of 0.2% (v/v) formic acid in water (A) and methanol (B). The mobile phase conditions were 79:21 (A:B, v/v) and the flow rate was 0.4 mL/min. The column temperature was maintained at 30 °C. The sample injection volume was 5 μL. The detection was performed on the triple quadrupole mass spectrometer equipped with electrospray source (Series 6490, Agilent Technologies). High purity nitrogen served as both the nebulizing and sheath gas. The optimized parameters in the positive or negative were as follows: capillary voltage at 3 kV, nozzle voltage at 1.5 kV, gas temperature of 200 °C and sheath gas temperature of 250 °C. The quantification was performed by multiple reaction monitoring (MRM) via precursor-to-product ion pair. AF and IS were detected in positive ion mode while PF was detected in negative ion mode. The parameters were set as follows: m/z 525→449 for PF (fragmentor energy, 380 eV; collision energy, 10 eV; dwell time, 80 ms); m/z 481→105 for AF (fragmentor energy, 380 eV; collision energy, 28 eV; dwell time, 80 ms); m/z 417→297 for IS (fragmentor energy, 380 eV; collision energy, 25 eV; dwell time, 80 ms).
(§3) A 100 μL aliquot of plasma sample was added with 50 μL 1% (v/v) formic acid in water and 50 μL IS working solution (the IS, concentration of 100 ng/mL) and 300 μL acetonitrile. After vortexing for 2 min and centrifugation at 13,000× g for 10 min, the sample was transferred to another Axygen tube and evaporated to dryness in a rotary evaporator at 40 °C. The residue was reconstituted in 100 μL of water–methanol (79:21, v/v), then an aliquot of 5 μL was injected into the UPLC-MS/MS system for analysis.
(§4) The male Sprague-Dawley (SD) rats were randomly divided into seven groups (six rats in each group), which were housed with unlimited access to food and water, except for fasting 12 h before the experiment with water ad libitum. The hypoxic rats were exposed to a fractional concentration of 9.0% O2 after intragastric administration of drug for hypoxia pharmacokinetics experiments. The compound PF (80 mg/kg, normoxia and hypoxia), AF (14 mg/kg, normoxia and hypoxia), combination administration of PF (80 mg/kg) and AF (14 mg/kg), the two dosages of TPG (PF with 80 mg/kg, and AF with 14 mg/kg) were intragastrically administered to the rats, respectively. […]

[2] = Pharmacokinetics in rat plasma after intragastric administration, hypoxia (9.0% O2); assay type: in vivo, Sprague-Dawley rats; conditions: mean ± SD; for clearance / Cmax / Tmax / half-life: n = 6; for Cmax / Tmax / half-life / AUC(0-t) / MRT last: male, Sprague-Dawley, po; for AUC(0-t): n = 6, read-out: AUC(0→24 h) (converted); for MRT last: n = 6, read-out: MRT(0→24 h) (converted)
Protocol: as §1, §2, §3, §4

[3] = Stability of the analytes in SD rat plasma (QC samples); assay type: in vitro ADME; conditions: 24 h after pretreatment, three freeze (−80 °C)/thaw (room temperature) cycles, 30 days at −80 °C
Protocol: The stabilities of the analytes in the SD rat plasma were investigated using the QC sample solutions stored under different temperature conditions for different periods of time which likely to be encountered during sample storage and the analytical process. The QC samples were tested for post-treatment, three freeze-thaw cycles and long-term stabilities. The post-treatment was evaluated by placing the QC samples in the autosampler for 24 h. And for freeze-thaw cycle stability assessment, the QC samples were repeatedly freezed and thawed for three cycles at −80 °C to 20 °C. The long-term stability was carried out via placing the QC samples at −80 °C for at least 30 days.

[4] = 14 mg/kg, AF (14 mg/kg) combined with PF (80 mg/kg), intragastric
[5] = 14 mg/kg, AF alone, 14 mg/kg intragastric, normoxia
[6] = 14 mg/kg, AF in TPG (TPG dose with AF 14 mg/kg), intragastric
[7] = AF 14 mg/kg single intragastric
[8] = 80 mg/kg, PF (80 mg/kg) combined with AF (14 mg/kg), intragastric
[9] = 80 mg/kg, PF alone, 80 mg/kg intragastric, normoxia
[10] = 80 mg/kg, PF in TPG (TPG dose with PF 80 mg/kg), intragastric
[11] = PF 80 mg/kg single intragastric

clearance ([1]; AF (14 mg/kg) combined with PF (80 mg/kg), intragastric): 1800 ± 600 mL/min/kg
clearance ([1]; AF alone, 14 mg/kg intragastric, normoxia): 1700 ± 500 mL/min/kg
clearance ([1]; AF in TPG (TPG dose with AF 14 mg/kg), intragastric): 1200 ± 400 mL/min/kg
Cmax [1, 4]: 42.4 ± 18.7 ng/mL
Tmax [1, 4]: 0.695 h
half-life [1, 4]: 2.17 ± 0.978 h
AUC(0-t) [1, 4]: 129 ng·h/mL
MRT last [1, 4]: 2.97 h
Cmax [1, 5]: 70.3 ± 19.1 ng/mL
Tmax [1, 5]: 0.445 h
half-life [1, 5]: 1.99 ± 0.495 h
AUC(0-t) [1, 5]: 142 ng·h/mL
MRT last [1, 5]: 2.25 h
Cmax [1, 6]: 56.9 ± 12.9 ng/mL
Tmax [1, 6]: 0.528 h
half-life [1, 6]: 3.59 ± 1.53 h
AUC(0-t) [1, 6]: 196 ng·h/mL
MRT last [1, 6]: 3.76 h
clearance [2, 7]: 1600 ± 700 mL/min/kg
Cmax [2, 7]: 49.1 ± 16.2 ng/mL
Tmax [2, 7]: 0.583 h
half-life [2, 7]: 2.19 ± 0.958 h
AUC(0-t) [2, 7]: 138 ng·h/mL
MRT last [2, 7]: 2.16 h
stability in rat plasma [3]: stable
SMILES: CC12CC(O)C3CC1(OC1OC(CO)C(O)C(O)C1O)C3(COC(=O)c1ccccc1)C(=O)O2 (centres unmarked) [AF, albiflorin]

clearance ([1]; PF (80 mg/kg) combined with AF (14 mg/kg), intragastric): 1600 ± 400 mL/min/kg
clearance ([1]; PF alone, 80 mg/kg intragastric, normoxia): 2300 ± 400 mL/min/kg
clearance ([1]; PF in TPG (TPG dose with PF 80 mg/kg), intragastric): 1700 ± 600 mL/min/kg
Cmax [1, 8]: 320 ± 121 ng/mL
Tmax [1, 8]: 0.695 h
half-life [1, 8]: 1.63 ± 0.665 h
AUC(0-t) [1, 8]: 865 ng·h/mL
MRT last [1, 8]: 3.33 h
Cmax [1, 9]: 333 ± 63.6 ng/mL
Tmax [1, 9]: 0.583 h
half-life [1, 9]: 1.81 ± 0.63 h
AUC(0-t) [1, 9]: 595 ng·h/mL
MRT last [1, 9]: 1.83 h
Cmax [1, 10]: 291 ± 141 ng/mL
Tmax [1, 10]: 0.388 h
half-life [1, 10]: 3.91 ± 1.6 h
AUC(0-t) [1, 10]: 902 ng·h/mL
MRT last [1, 10]: 4.81 h
clearance [2, 11]: 3050 ± 540 mL/min/kg
Cmax [2, 11]: 177 ± 55.1 ng/mL
Tmax [2, 11]: 0.847 h
half-life [2, 11]: 1.86 ± 0.475 h
AUC(0-t) [2, 11]: 443 ng·h/mL
MRT last [2, 11]: 2.12 h
stability in rat plasma [3]: stable
SMILES: C[C@@]12C[C@@]3(O)O[C@@H](O1)[C@]1(COC(=O)c4ccccc4)[C@H]3C[C@@]12O[C@@H]1O[C@H](CO)[C@@H](O)[C@H](O)[C@H]1O [PF, paeoniflorin]
